Laboratory results: patent US7598072B2 (priority 2003, dated 2009)
Read-outs that look alike come from different tables or passages of the source.

Key:
[1] = tested on: ASLV; settings: 30 mM or higher concentrations of NH4Cl; cited from earlier work
[2] = tested on: ASLV; assay type: cell-based, avian sarcoma and leukosis virus; settings: 3 mM NH4Cl, data not shown
[3] = tested on: ASLV-A vector RCASBP(A)-EGFP; assay type: biochemical, avian sarcoma and leukosis virus
[4] = tested on: HIV [EnvA] pseudotyped virus; experiment: HIV [EnvA] cell-free fusion/uncoating reaction, HIV-1 early DNA by real-time PCR; assay type: biochemical; settings: 4.5 mM, 200 μg 293 S10 fraction, 6 hour incubation

Cl.N [NH4Cl, ammonium chloride]
ASLV fusion and entry into cells [1]: effectively blocked | ASLV fusion and entry into cells [2]: unaffected

Nc1ncnc2c1ncn2[C@@H]1O[C@H](CO[P@](=O)(O)O[P@](=O)(O)O[P@@](=O)(O)S)[C@@H](O)[C@H]1O [adenosine 5′-[γ-thio]triphosphate]
effect on stimulation of ASLV early DNA synthesis in the cell-free system ([3]; 2.5 mM, 150 μg 293 S10 fraction, 6 hour incubation): markedly reduced | effect on stimulation of HIV-1 early DNA synthesis in the cell-free system [4]: markedly reduced

apyrase
effect on amount of ASLV early DNA products ([3]; 10 units/ml apyrase added 30 minutes or later after initiating the cell-free reaction): little or no effect | effect on amount of ASLV early DNA products ([3]; 10 units/ml apyrase, 150 μg 293 S10 fraction): reduced
